Measurements from US8993782B2, “Cis-alkoxyspirocyclic biphenyl-substituted tetramic acid derivatives” (Bayer CropScience AG, priority 2006, dated 2015).

What was measured:
Assay type in all cases: in vivo
[1] = test system: Aphis gossypii; experiment: Aphis gossypii test, spray, with/without ammonium salt (Example 1); conditions: 20 ppm active compound, cotton plants sprayed to runoff
Procedure: (§1) Solvent: 7 parts by weight of dimethylformamide
(§2) Emulsifier: 2 parts by weight of alkylaryl polyglycol ether
To produce a suitable preparation of active compound, 1 part by weight of active compound is mixed with the stated amounts of solvent and emulsifier, and the concentrate is diluted with emulsifier-containing water to the desired concentration. For application with ammonium salts or phosphonium salts these are added in a concentration of 1000 ppm to the spray liquor.
Cotton plants (Gossypium hirsutum) which are severely infested with cotton aphids (Aphis gossypii) are treated by spraying to runoff point with the preparation of the active substance at the desired concentration.
After the desired period of time, the kill in % is determined. 100% means that all aphids have been killed; 0% means that none of the aphids have been killed.

[2] = test system: Aphis gossypii; experiment: Aphis gossypii test, spray, ammonium salt and penetrant (Example 3); conditions: 20 ppm active compound
Procedure: Aphis gossypii Test Solvent: 7 parts by weight of dimethylformamide Emulsifier: 2 parts by weight of alkylaryl polyglycol ether To produce a suitable preparation of active compound, 1 part by weight of active compound is mixed with the stated amounts of solvent and emulsifier, and the concentrate is diluted with emulsifier-containing water to the desired concentration. For application with ammonium salts or phosphonium salts and penetrant (rapeseed oil methyl ester 500 EW) these are added in each case in a concentration of 1000 ppm (a.i.) to the spray liquor. Cotton plants (Gossypium hirsutum) which are heavily infested by the cotton aphid (Aphis gossypii) are treated with the active compound preparation of the desired concentration by spraying to runoff point. After the desired period of time, the kill in % is determined. 100% means that all aphids have been killed; 0% means that none of the aphids have been killed.

[3] = test system: Myzus persicae; experiment: Myzus persicae test, spray, activity boost by ammonium salt and penetrant (Example 2); conditions: 0.8 ppm active compound
Procedure: Activity Boost Through Ammonium/Phosphonium Salts in Combination with Penetrants
as §1, §2
To produce a suitable preparation of active compound, 1 part by weight of active compound is mixed with the stated amounts of solvent and emulsifier, and the concentrate is diluted with water to the desired concentration. For application with ammonium salts or phosphonium salts and penetrants (rapeseed oil methyl ester 500 EW) these are added in each case in a concentration of 1000 ppm to the spray liquor.
Bell pepper plants (Capsicum annuum) which are heavily infested by the green peach aphid (Myzus persicae) are treated with the active compound preparation of the desired concentration by spraying to runoff point. After the desired period of time, the kill in % is determined. 100% means that all animals have been killed; 0% means that none of the animals have been killed.

Row | Compound | Kill rate/% after 6 days ([1]; +AS (1000 ppm)) [%] | Kill rate/% after 6 days ([1]; no additive) [%] | Kill rate/% after 6 days ([2]; +AS (1000 ppm)) [%] | Kill rate/% after 6 days ([2]; +RME (1000 ppm)) [%] | Kill rate/% after 6 days ([2]; +RME + AS (1000 ppm each)) [%] | Kill rate/% after 6 days ([2]; cotton plants sprayed to runoff, no additive) [%] | Kill rate/% after 6 days ([3]; +AS (1000 ppm)) [%] | Kill rate/% after 6 days ([3]; +RME (1000 ppm)) [%] | Kill rate/% after 6 days ([3]; +RME + AS (1000 ppm each)) [%] | Kill rate/% after 6 days ([3]; bell pepper plants sprayed to runoff, no additive) [%]
1 | COC1CCC2(CC1)NC(=O)C(c1c(C)ccc(-c3ccc(F)cc3)c1C)=C2O (stereo not shown) [I-a-2] | 25 | 15 | – | – | – | – | – | – | – | –
2 | CO[C@H]1CC[C@]2(CC1)NC(=O)C(c1cc(-c3ccc(F)cc3)ccc1C)=C2O [I-a-1] | – | – | 15 | 70 | 80 | 5 | 0 | 30 | 70 | 10
